# Test results reported in US11969490B2, “Hair conditioning composition with antimicrobial system” (The Procter & Gamble Company, priority 2020, dated 2024).
# Experiment: Rheology Test Method (shear stress at 950 s^−1 via flow curve)
# Type: physicochemical
# Description: 2. Rheology Test Method Rheology is used to evaluate and characterise product samples. The two key rheology methods identified are mentioned below: • Shear Stress at 950 s^−1 via flow curve: This is the method to ramp up shear rate logarithmically from 0.1 to 1000 s^−1 in 1 min using a cone & plate geometry, and to read the shear stress value 6 (Pa) at shear rate 950 s^−1. • Delta in Rheology %: This is the percentage difference in rheology measurement following the formula below: Delta in Rheology %=((a−b)/b)×100% • where a is the post added product and b is the no post added product. If rheology reduction is more than 50%, it would indicate significant interaction with chassis and incompatible.
row,Compound,"rheology reduction / compatibility with formulation, in words"
1,CCCCCCCC(=O)OCC(O)CO (stereo not shown) [Glyceryl caprylate],no significant rheology reduction
2,CC(=O)c1ccc(O)cc1 [4-Hydroxyacetophenone],no significant rheology reduction
3,"O=C([O-])c1ccccc1.[Na+] [Sodium benzoate, reference compound]",significant rheology reduction
4,Pentylene Glycol,no significant rheology reduction
